Laboratory results: article PMC8484532, “Synthesis and Evaluation of New Halogenated GR24 Analogs as Germination Promotors for Orobanche cumana” (Frontiers in Plant Science, 2021)
Read-outs that look alike come from different tables or passages of the source.

Target: T1, ShHTL7 (Striga hermonthica, UniProt A0A0M3PNA2)
T1 sequence (A0A0M3PNA2 1-271): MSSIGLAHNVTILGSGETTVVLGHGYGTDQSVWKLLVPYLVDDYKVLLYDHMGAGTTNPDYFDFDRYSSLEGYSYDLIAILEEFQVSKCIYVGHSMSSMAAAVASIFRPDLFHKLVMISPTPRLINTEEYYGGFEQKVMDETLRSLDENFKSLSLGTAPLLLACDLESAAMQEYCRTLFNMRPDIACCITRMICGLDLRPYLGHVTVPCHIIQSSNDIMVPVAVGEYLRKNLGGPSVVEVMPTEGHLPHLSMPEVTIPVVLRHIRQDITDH
Test: in vitro yoshimulactone green (YLG) fluorescence competition assay
Type: biochemical

IC50 (read-out: IC50) [nM]	Compound	IC50 [nM]
	CC1=CC(O/C=C2/C(=O)OC3c4ccccc4CC23)OC1=O (racemic) [rac-GR24]	319 ± 32
521 ± 87	CC1=CC(O/C=C2/C(=O)OC3c4cc(Br)ccc4CC23)OC1=O (stereo not shown) [7BrGR24, 7-bromo-GR24]	
189 ± 12	CC1=CC(O/C=C2/C(=O)OC3c4cc(F)ccc4CC23)OC1=O (stereo not shown) [7FGR24, 7-fluoro-GR24]	
	CC1=C[C@H](O/C=C2/C(=O)O[C@@H]3c4ccccc4C[C@H]23)OC1=O [(+)-GR24]	248 ± 32
